Literature values, collected in patent US5686420A, “Thyrotropin-releasing hormone analogs and method of use” (Georgetown University, priority 1995, dated 1997).

Settings: in vivo

plasma half-life: 4 to 5 min
Compound: NC(=O)[C@@H]1CCCN1C(=O)[C@H](Cc1cnc[nH]1)NC(=O)[C@@H]1CCC(=O)N1 [TRH, L-pyroglutamyl-L-histidyl-L-prolineamide]
